Columns and labels:
[1] = cited from earlier work
[2] = cited from earlier work; remark: listed apart in the source
[3] = animal experiments; inhalation; cited from earlier work
[4] = test system: Pulmonary Fibrosis Induced by Bleomycin in Rats; test: Bleomycin-induced pulmonary fibrosis model in rats (Example 5); assay type: in vivo, SD rats
Experimental: This study aims to compare the effects of different administration methods, including oral gavage of EGCG, tracheal nebulization of pirfenidone solution, and tracheal nebulization of EGCG at different doses, on the collagen content in lung tissues and pathological observations of rats with bleomycin-induced pulmonary fibrosis. The therapeutic effect of inhaled EGCG on rat pulmonary fibrosis was evaluated.
The solvents for the EGCG nebulization solution, modeling agents, and their solvents are as described in Example 4. The positive control drug is pirfenidone (purity 99%, pharmaceutical grade), with the solvent components consisting of NaCl and citric acid, forming a clear liquid.
SPF-grade SD rats, 6-9 weeks old with a weight of 200-300g, totaling 88 rats, were randomly divided into the following groups: • Sham operation group (normal control) (8 rats) • Pulmonary fibrosis model control group (10 rats) • Oral gavage EGCG group 1 (10 rats) • Oral gavage EGCG group 2 (10 rats) • Tracheal Nebulization EGCG solution groups 1-4 (10 rats per group, total 40 rats) • Tracheal Nebulization pirfenidone solution group (10 rats)
On D1, the normal control group was administered solvent 2 (saline injection solution, 1 mL/kg) via tracheal nebulization, while all other groups were administered bleomycin (2.5 mg/kg, 1 mL/kg) via tracheal nebulization twice a day (morning and afternoon) to establish the model. On D8, the body weights of the animals were recorded. From D10 to D28, the normal control and pulmonary fibrosis model groups were treated with solvent 1 via tracheal nebulization, while the remaining groups were administered EGCG or pirfenidone once daily at the following doses and administration methods: • Oral gavage EGCG group 1 and 2: 30 mg/kg, 60 mg/kg • Tracheal Nebulization EGCG group 1-4: 0.05 mg/kg, 0.4 mg/kg, 0.8 mg/kg, 1.6 mg/kg • Tracheal Nebulization pirfenidone solution group: 0.9 mg/kg (reference dose from M.W. Surber et al., ATS POSTER, 2014)
On D29, all animals were euthanized for dissection. During the necropsy, the lungs, trachea, and bronchi were examined for abnormalities. Left lung tissue was preserved at below -60°C for hydroxyproline content detection, and right lung tissue was prepared for pathological sectioning. Hematoxylin and eosin (HE) staining and Masson staining were performed for pathological morphological observations and fibrosis evaluation.
All groups were compared to the model group using statistical analysis via Kruskal-Wallis test. The results are indicated as follows: • *P < 0.05: statistically significant difference • **P < 0.01: highly significant difference • ***P < 0.001: extremely significant difference • ****P < 0.0001: extremely highly significant difference

[5] = nebulized 100 mg vs oral 801 mg

Row | SMILES | photosensitivity reactions in patients ([1]; oral 801 mg three times daily (TID)) | plasma drug concentrations ([2]; inhalation) | Cmax in epithelial lining fluid (ELF) relative to the Cmax of the oral dose (higher) [2, 5] | systemic exposure relative to the oral dose (lower) [2, 5] | half-life in the lungs [3] | Hydroxyproline Content ([4]; rat lung tissue, positive control, Inh 0.9 mg/kg once daily D10 to D28, Mean ±SEM) | hydroxyproline content in rat lungs, difference from the model group ([4]; tracheal nebulization of pirfenidone solution 0.9 mg/kg) | diarrhea in clinical study participants ([1]; oral 150 mg twice daily (BID))
1 | Cc1ccc(=O)n(-c2ccccc2)c1 [pirfenidone] | up to 51% | 807 to 1370 ng/mL | 35 times | about 15 times | about 10 minutes | 0.587 ± 0.059 µg/µL | not statistically significant | 
2 | COC(=O)c1ccc2c(c1)NC(=O)/C2=C(\Nc1ccc(N(C)C(=O)CN2CCN(C)CC2)cc1)c1ccccc1 [nintedanib] |  |  |  |  |  |  |  | up to 61.5%

Reference: patent publication EP4623908A1, “USE OF (-)-EPIGALLOCATECHIN GALLATE COMPOUND” (CF Pharmtech, Inc., priority 2022, dated 2024)
